For seven compounds, LC50, Ki and IC50 results are on record in ChEMBL document CHEMBL1147236, “Semiplenamides A-G, fatty acid amides from a Papua New Guinea collection of the marine cyanobacterium Lyngbya semiplena” (J Nat Prod, 2003).

Series [1] is described as follows: Toxicity in Artemia salina after 24 hrs. The format is organism-based. The following applies: in vivo, read-out: LD50.
Series [2] concerns the target Cannabinoid receptor 1 (Rattus norvegicus, UniProt P20272). Nature of the series: Displacement of [3H]SR141716A from CB1 receptor in CD rat brain membranes. It is filed as cell membranes, Membrane. (Displacement assays read how much labelled ligand stays bound in the presence of the test substance.)
The nature of series [3]: Inhibition of AMT in rat RBL-2H3 cells assessed as [14C]anandamide uptake. It is filed as cell-based.

Molecules are shown by their SMILES.

Chain of Cannabinoid receptor 1 (P20272 whole entry): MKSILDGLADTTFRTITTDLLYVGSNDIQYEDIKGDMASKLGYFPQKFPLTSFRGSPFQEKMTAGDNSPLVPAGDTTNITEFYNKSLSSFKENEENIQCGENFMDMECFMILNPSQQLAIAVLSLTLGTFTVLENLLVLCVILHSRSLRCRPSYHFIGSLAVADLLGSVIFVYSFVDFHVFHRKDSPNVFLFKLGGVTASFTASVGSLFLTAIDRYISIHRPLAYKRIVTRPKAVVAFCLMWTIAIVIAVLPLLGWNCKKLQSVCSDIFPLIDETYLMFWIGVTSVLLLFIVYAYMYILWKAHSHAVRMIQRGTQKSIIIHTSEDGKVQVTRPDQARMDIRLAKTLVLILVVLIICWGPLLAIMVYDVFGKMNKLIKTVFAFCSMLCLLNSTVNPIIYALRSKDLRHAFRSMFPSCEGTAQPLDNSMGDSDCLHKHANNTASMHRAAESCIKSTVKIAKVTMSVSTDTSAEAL

On to `CCCCCCCCCCCCC/C=C/CC/C=C(\C)C(=O)NCCO` [SEMIPLENAMIDE A], for which the LC50 at 24 h in series [1] amounted to 1.4 µM. The compound further displayed a Ki in series [2] of 19.5 µM. The IC50 in series [3] was determined as 18.1 µM.
Regarding `CCCCCCCCCCCCC/C=C/CC/C=C(\C)C(=O)NCCOC(C)=O` [SEMIPLENAMIDE B], the LC50 at 24 h in series [1] was determined as 2.5 µM. In addition, in series [2], the Ki came out at 18.7 µM.
As to `CCCCCCCCCCCCC/C=C(\C)C(=O)N[C@@H](C)CO` [SEMIPLENAMIDE C], the LC50 at 24 h in series [1] was determined as 1.5 µM.
On to `CCCCCCCCCCCCCCCCC/C=C(\C)C(=O)N[C@@H](C)COC(C)=O` [SEMIPLENAMIDE D], for which the LC50 at 24 h in series [1] turned out to be 18 µM.
For the compound `CCCCCCCCCCCCCCC/C=C(\C)C(=O)N[C@@H](C)COC(C)=O` [SEMIPLENAMIDE E], in series [1], the LC50 at 24 h was found to be 19 µM.
Take `CCCCCCCCCCCCCCC[C@H]1O[C@]1(C)C(=O)NC(C)CO` (stereo partly specified) [SEMIPLENAMIDE F]: the LC50 at 24 h in series [1] amounted to 1.4 µM.
For `CCCCCCCCCCCCCCC[C@H]1O[C@]1(C)C(=O)NC(C)COC(C)=O` (stereo partly specified) [SEMIPLENAMIDE G], the LC50 at 24 h in series [1] is 2.4 µM. This compound also registered a Ki in series [2] of 17.9 µM.

As a reminder, the Ki is the dissociation constant of the complex between target and ligand, obtained from inhibition or displacement. Read a high Ki as a looser hold on the target. In general, IC50 refers to the concentration that gives 50% inhibition.
